Results as given in PMC4886168, “Effects of solid‐phase extraction of plasma in measuring gut metabolic hormones in fasted and fed blood of lean and diet‐induced obese rats” (Physiological Reports, 2016).
Values joined by “and” are separate entries in the source; they are usually repeats but may differ in a detail not shown here. Equal values may be shown once.

What was measured:
[1] = Plasma peptide levels during IV infusion of anorexigenic doses in lean rats
Experimental: Leptin doses bracketed the minimal effective dose (1100 ng/kg/min) for reducing food intake in lean rats (Reidelberger et al. 2012). Approximately 45 min after infusion onset, and while the infusion continued, rats were anesthetized with isoflurane (3%), and blood samples (~3 mL) were obtained by cardiac puncture. Samples were immediately transferred to 4 mL EDTA tubes on ice containing 40 μL of a mixture of 0.9 mL DPP4 inhibitor, 0.1 mL Protease Inhibitor Cocktail, and 0.1 g AEBSF. Plasma was obtained by centrifugation within 30 min of sample collection and stored at −70°C until solid‐phase extraction of samples followed by the multiplex assay. Infusions were administered using a syringe infusion pump (Harvard Apparatus, South Natick, MA). At the end of the experiment, data from a rat were excluded if its jugular vein catheter was not patent. A catheter was deemed patent if the rat lost consciousness within 10 sec of a bolus injection of the short‐acting anesthetic brevital into the catheter.
Plasma samples were extracted using procedures similar to those described previously (Dai et al. 2008). Briefly, an OASIS HLB LP (60 mg) 96‐well extraction plate (Waters Corp., Milford, MA) was prepared by passing 1 mL acetonitrile twice through each well, followed by 3, 1 mL washes of 1% trifluoroacetic acid (TFA; 1:100 water [vol/vol]). Flows through the wells were facilitated using a Waters vacuum manifold (5 inch Hg). Plasma (1 mL) was then added to each well; 10 min later, flows were facilitated using vacuum. Wells were then washed three times with 1 mL 1% TFA (facilitated using vacuum). Extracts were eluted into individual tubes by adding 1 mL of 1% TFA, 60% acetonitrile in water (vol/vol) to each well; 10 min later, flows were facilitated using vacuum. Samples of each extract (0.9 mL) were frozen, and then lyophilized to dryness. At time of assay, dried extracts for each sample were dissolved with 0.45 mL of assay buffer, producing a twofold higher concentration for eluted plasma components.
The multiplex assay employed a BioTek ELx405 plate washer fitted with a magnetic holder, and a Luminex 200 analyzer. […] Initial assays compared peptide standards used in the multiplex assay with those used in the individual ELIAs: multiplex assay standards were included in the individual ELIAs, and standards from the ELIAs were included in the multiplex assay.
In experiments examining the effects of solid‐phase extraction of plasma samples on specific recoveries of the seven peptides added to lean and obese plasma, measured peptide concentrations in each plasma sample were plotted against expected concentrations (after subtracting plasma alone values), and linear regression analyses were performed. […] Planned comparisons of treatment means were evaluated by t‐tests or paired t‐tests. […]

food intake in lean rats = settings: cited from earlier work; for ED50 dose for reducing food intake: 3-h IV infusion, ref Reidelberger et al. 2001, Chelikani et al. 2005a,b
[2] = rats, amylin 15 ng/kg/min IV; solid-phase extraction of plasma, amylin radioimmunoassay; ref Arnelo et al. 1998; cited from earlier work
Description: With respect to the pancreatic hormone amylin, we previously provided evidence that postprandial plasma levels of amylin are not quite sufficient to inhibit food intake in rats by an endocrine mechanism (Arnelo et al. 1998). […] Here, we provide evidence using solid‐phase extraction of plasma and the multiplex assay for active amylin that a large chow meal in ...

Row | predicted plasma active amylin level at minimal anorexigenic dose ([1]; rat, in vivo, iv) | Molecule | best-fit linear regression equation, Y plasma peptide concentration (pg/mL), X peptide dose (ng/kg/min) ([1]; lean rats, 45 min IV infusion, three dose levels incl. 0, extracted plasma, multiplex assay, multiplex standards as reference) | plasma level at ~ED50 dose relative to that produced by the large meal ([1]; lean rats, IV ~ED50 doses (56, 68, 39 ng/kg/min) vs postprandial level 30 min after meal onset, ELIA standards as reference) | predicted plasma active GLP-1 level at minimal anorexigenic dose ([1]; regression prediction for GLP-1 1.6 ng/kg/min IV, dose not administered here, [95% CI]) | ED50 dose for reducing food intake (food intake in lean rats; lean rats) | effect on food intake (food intake in lean rats; rats, IV infusion of GLP-1 at 33 ng/kg/min, ref Chelikani et al. 2005b) | plasma amylin produced by anorexigenic IV dose [2] | minimal effective dose for reducing food intake (food intake in lean rats; lean rats, IV infusion of leptin, ref Reidelberger et al. 2012)
1 |  | CC[C@H](C)[C@H](NC(=O)[C@H](Cc1ccccc1)NC(=O)[C@H](CCC(=O)O)NC(=O)[C@H](CCCCN)NC(=O)[C@H](C)NC(=O)[C@H](C)NC(=O)[C@H](CCC(N)=O)NC(=O)CNC(=O)[C@H](CCC(=O)O)NC(=O)[C@H](CC(C)C)NC(=O)[C@H](Cc1ccc(O)cc1)NC(=O)[C@H](CO)NC(=O)[C@H](CO)NC(=O)[C@@H](NC(=O)[C@H](CC(=O)O)NC(=O)[C@H](CO)NC(=O)[C@@H](NC(=O)[C@H](Cc1ccccc1)NC(=O)[C@@H](NC(=O)CNC(=O)[C@H](CCC(=O)O)NC(=O)[C@H](C)NC(=O)[C@@H](N)Cc1c[nH]cn1)[C@@H](C)O)[C@@H](C)O)C(C)C)C(=O)N[C@@H](C)C(=O)N[C@@H](Cc1c[nH]c2ccccc12)C(=O)N[C@@H](CC(C)C)C(=O)N[C@H](C(=O)N[C@@H](CCCCN)C(=O)NCC(=O)N[C@@H](CCCNC(=N)N)C(N)=O)C(C)C [GLP‐1, Glucagon‐like peptide‐1] | 37 + 75X pg/mL | 30–60 fold and 30 fold | 53 [−400, 510] pg/mL | 76 ng/kg/min | sufficient to decrease food intake |  | 
2 | 450 [−460, 1360] pg/mL | CC(C)C[C@H](NC(=O)[C@H](CC(N)=O)NC(=O)[C@H](CC(N)=O)NC(=O)[C@H](CO)NC(=O)[C@H](CO)NC(=O)[C@H](CCCNC(=N)N)NC(=O)[C@@H](NC(=O)[C@H](CC(C)C)NC(=O)[C@H](Cc1ccccc1)NC(=O)[C@H](CC(N)=O)NC(=O)[C@H](C)NC(=O)[C@H](CC(C)C)NC(=O)[C@H](CCCNC(=N)N)NC(=O)[C@H](CCC(N)=O)NC(=O)[C@@H](NC(=O)[C@H](C)NC(=O)[C@@H]1CSSC[C@H](NC(=O)[C@@H](N)CCCCN)C(=O)N[C@@H](CC(N)=O)C(=O)N[C@@H]([C@@H](C)O)C(=O)N[C@@H](C)C(=O)N[C@@H]([C@@H](C)O)C(=O)N1)[C@@H](C)O)C(C)C)C(=O)NCC(=O)N1CCC[C@H]1C(=O)N[C@H](C(=O)N[C@@H](CC(C)C)C(=O)N1CCC[C@H]1C(=O)N1CCC[C@H]1C(=O)N[C@H](C(=O)N[C@@H](CC(N)=O)C(=O)N[C@H](C(=O)NCC(=O)N[C@@H](CO)C(=O)N[C@@H](CC(N)=O)C(=O)N[C@H](C(=O)N[C@@H](Cc1ccc(O)cc1)C(N)=O)[C@@H](C)O)C(C)C)[C@@H](C)O)C(C)C [Amylin] |  |  |  | 31 ng/kg/min |  | 140 pg/mL | 
3 |  | Leptin (protein, UniProt P41160 22-167, looked up) Leptin: VPIQKVQDDTKTLIKTIVTRINDISHTQSVSAKQRVTGLDFIPGLHPILSLSKMDQTLAVYQQVLTSLPSQNVLQIANDLENLRDLLHLLAFSKSCSLPQTSGLQKPESLDGVLEASLYSTEVVALSRLQGSLQDILQQLDVSPEC |  |  |  |  |  |  | 1100 ng/kg/min
